Test results reported in patent US20250345328A1, “METHODS OF TREATING A RAS RELATED DISEASE OR DISORDER” (Revolution Medicines, Inc., priority 2023, published 2025).

Legend:
[1] = Phase 1/1b study of Compound A: safety, treatment-related adverse events; format: in vivo, human
Procedure: This Example describes the study design of a Phase 1/1b study of Compound A in patients with advanced solid tumors harboring specific mutations in RAS with the first patient dosed in June 2022. There are 2 parts planned in this study: Part 1: Dose Escalation and Part 2: Dose Expansion. In the Dose Escalation Phase, safety/tolerability and pharmacokinetics (PK) are assessed, and one or more candidate recommended phase 2 dose and schedule (RP2DS) for further testing in the second part of the study is determined. Enrollment in the Dose Expansion Phase begins after determination of a candidate RP2DS. Part 2 of the study further evaluates the safety/tolerability, PK, and preliminary antitumor effects within specific histotypes. Dose Expansion/Dose Optimization cohorts include RAS-mutant advanced solid tumors with specific histotypes/genotypes (including, but not limited to, NSCLC, PDAC, CRC, melanoma, gynecological cancers, other solid tumors.
Safety assessments and procedures were performed. Real-time safety monitoring was performed to ensure that the protocol-specified dose modification guidelines are followed. In addition, C1 safety and available PK and pharmacodynamic data was reviewed and evaluated at each Compound A dose level/schedule to determine whether enrollment into the next higher dose-level cohort may proceed. A modified schedule can be evaluated in which Compound A may be administered more or less frequently than once daily (QD). The totality of the data from dose escalation cohorts was reviewed and one or more candidate RP2DS for expansion in Part 2 recommended.
(§1) Compound A was administered PO QD at the following dose levels until disease progression or unacceptable toxicity: 10, 20, 40, 80, 120, 160, 220, 300, 400, and 500 mg. Progression to the next Cohort and dose level may stop if DLT is observed at a lower dose level. Other dose levels not specified but within the range listed above may also be permitted based on emergent safety and PK data.
As of Sep. 11, 2023, 131 patients received Compound A at dose levels from 10 to 400 mg QD. The majority of patients had pancreatic cancer, non-small cell lung cancer, or colorectal cancer. The most common (≥10% of patients) treatment-related adverse events (TRAEs) were rash and gastrointestinal (GI)-related toxicities that were all Grade 1 or 2 in severity. Most rashes were acneiform or maculopapular, consistent with known on-target rash presentation from other RAS pathway inhibitors. […] The most common GI-related toxicities were nausea, diarrhea, and vomiting that were manageable with standard supportive care. The median duration of treatment at the time of the data extraction was 2.27 months.

[2] = test system: KRAS^G12V ovarian cancer; assay: Phase 1/1b study: tumor response in ovarian cancer case; format: in vivo, human; conditions: one patient; 10 mg QD, escalated to 40 mg QD at C7 and 80 mg QD at C10; at cycle 13
Procedure: Subjects are assessed for response using Response Evaluation Criteria in Solid Tumors (version 1.1) (RECIST [v1.1]). All subjects with previous or current, known or suspected brain metastases must have a magnetic resonance imaging (MRI) of the brain (unless contraindicated) performed within 28 days prior to the first dose of Compound A (C1D1). Disease response for clinical management of subjects is assessed per RECIST (v1.1).
person diagnosed with stage III ovarian cancer in 2004 and later with metastatic disease to the liver and peritoneum. The patient had received 2 prior therapies; Surgery; and carboplatin/paclitaxel. […] The patient was dose escalated to 40 mg QD at C7 and then to 80 mg QD at C10.

[3] = test system: multiple human cancer cell lines; assay: Growth suppression and apoptosis in cancer cell lines in vitro; format: cell-based
Source text: As described herein, Compound A is a potent, orally (PO) bioavailable RAS(ON) multi-selective inhibitor, selective for the active guanosine-5′-triphosphate (GTP)-bound state (RAS(ON)) of both mutant and wild-type variants of the canonical RAS isoforms (KRAS, NRAS, and HRAS) over other members of the RAS superfamily and other cellular targets. […] Binding of Compound A to CypA results in an inhibitory complex that binds RAS(ON), forming a high-affinity tri-complex that suppresses RAS signaling by disrupting interactions with effectors.

[4] = Phase 1/1b study: steady-state blood PK; format: in vivo, human; conditions: PO QD
Source text: FIG. 3 graphically depicts the mean steady-state blood PK profiles and individual steady-state blood AUC.
Whole-blood samples are collected from all subjects to measure Compound A concentrations, circulating tumor deoxyribonucleic acid (ctDNA) and other biomarkers. Samples for pharmacodynamic assays collected in Cycle 1 and beyond. Paired pretreatment and on treatment fresh tumor samples can optionally be collected from any subject if consent is obtained and at the discretion of the treating physician. Optional collection of pre-study treatment fresh biopsy should be performed prior to C1D1 dosing. An optional on-study treatment biopsy can be obtained with subject consent and at the discretion of the treating physician. The primary purpose of the optional on-study treatment biopsies is to assess pharmacodynamic markers and previously acquired pre-study treatment markers of resistance. Biopsy assessment with study intervention treatment over time may also help with better understanding of the shift in mutational profile with study treatment, as well as cellular clonality changes over time. Where tumor tissue allows, predictive biomarkers of response may be explored.
as §1
Dose levels greater than or equal to 80 mg achieved exposures that induced tumor regressions in human xenograft models with KRAS^G12X mutations in mice (FIG. 3).

[5] = Total (N = 131), 10 to 400 mg QD, as of Sep. 11, 2023
[6] = Total (N = 131), 10 to 400 mg QD, post-data extraction associated with biliary obstruction, reported as unrelated to Compound A

CCn1c(-c2cc(N3CCN(C)CC3)cnc2[C@H](C)OC)c2c3cc(ccc31)-c1csc(n1)C[C@H](NC(=O)[C@H]1C[C@@H]1C)C(=O)N1CCC[C@H](N1)C(=O)OCC(C)(C)C2 [Compound A]
Fatigue TRAE, maximum severity Grade 4 [1, 5]: 0 n (%)
Nausea TRAE, Any Grade [1, 5]: 55 (42 n (%)
Nausea TRAE, maximum severity Grade 1 [1, 5]: 41 (31) n (%)
Nausea TRAE, maximum severity Grade 2 [1, 5]: 14 (11) n (%)
Nausea TRAE, maximum severity Grade 3 [1, 5]: 0 n (%)
Nausea TRAE, maximum severity Grade 4 [1, 5]: 0 n (%)
Rash* TRAE, Any Grade [1, 5]: 92 (70) n (%)
Rash* TRAE, maximum severity Grade 1 [1, 5]: 57 (44) n (%)
Rash* TRAE, maximum severity Grade 2 [1, 5]: 29 (22) n (%)
Rash* TRAE, maximum severity Grade 3 [1, 5]: 6 (5) n (%)
Rash* TRAE, maximum severity Grade 4 [1, 5]: 0 n (%)
Stomatitis TRAE, Any Grade [1, 5]: 21 (16) n (%)
Stomatitis TRAE, maximum severity Grade 1 [1, 5]: 10 (8) n (%)
Stomatitis TRAE, maximum severity Grade 2 [1, 5]: 9 (7) n (%)
Stomatitis TRAE, maximum severity Grade 3 [1, 5]: 2 (2) n (%)
Stomatitis TRAE, maximum severity Grade 4 [1, 5]: 0 n (%)
TRAEs leading to dose reduction, Any Grade [1, 5]: 11 (8) n(%)
TRAEs leading to dose reduction, maximum severity Grade 1 [1, 5]: 0 n(%)
TRAEs leading to dose reduction, maximum severity Grade 2 [1, 5]: 9 (7) n(%)
TRAEs leading to dose reduction, maximum severity Grade 3 [1, 5]: 2 n(%)
TRAEs leading to dose reduction, maximum severity Grade 4 [1, 5]: 0 n(%)
TRAEs leading to treatment discontinuation, Any Grade [1, 5]: 1 (1) n(%)
TRAEs leading to treatment discontinuation, maximum severity Grade 1 [1, 5]: 0 n(%)
TRAEs leading to treatment discontinuation, maximum severity Grade 2 [1, 5]: 0 n(%)
TRAEs leading to treatment discontinuation, maximum severity Grade 3 [1, 5]: 0 n(%)
TRAEs leading to treatment discontinuation, maximum severity Grade 4 [1, 5]: 1 (1) n(%)
Vomiting TRAE, Any Grade [1, 5]: 36 (28) n (%)
Vomiting TRAE, maximum severity Grade 1 [1, 5]: 27 (21) n (%)
Vomiting TRAE, maximum severity Grade 2 [1, 5]: 9 (7) n (%)
Vomiting TRAE, maximum severity Grade 3 [1, 5]: 0 n (%)
Vomiting TRAE, maximum severity Grade 4 [1, 5]: 0 n (%)
ALT elevation TRAE, maximum severity Grade 3 [1, 6]: 1 (1)+ n(%)
AST elevation TRAE, maximum severity Grade 3 [1, 6]: 1 (1)+ n(%)
Discontinuation of study treatment due to death ([1]; one PDAC (120 mg) due to PD, one NSCLC (200 mg) unknown cause reported as unrelated to Compound A): Two patients discontinued study treatment due to death
Grade 4 TRAE (leading to treatment discontinuation) ([1]; one patient with PDAC treated at 80 mg, at the site of an invasive tumor): large intestine perforation
Response, case report KRAS^G12V ovarian cancer [2]: confirmed partial response
Effect on cancer cell lines in vitro [3]: growth suppression and apoptosis
Exposure in patients versus dose ([4]; blood): dose-dependent increases in exposure
Accumulation in the blood following repeated daily dosing ([4]; patients): minimal accumulation
Dose levels that achieved exposures that induced tumor regressions in human xenograft models with KRAS^G12X mutations in mice ([4]; patients, FIG. 3): greater than or equal to 80 mg
